US4889855A, “Heterocyclic compounds and their preparation and use” (priority 1987, dated 1989)

Columns and labels:
[1] = system: NMDA (N-methyl-D-aspartate) receptors; settings: background; cited from earlier work
quisqualate receptor [2] = experiment: 3H-AMPA binding (Test 1); settings: displacement of 50% of the specific binding of 3H-AMPA (5 nM), rat cerebral cortical membranes, 0° C., 30 min
Excerpt: The quisqualate receptor binding activity of the compounds of the present invention can be illustrated by determining their capability for displacing radioactively labelled 2-amino-3hydroxy-5-methyl-4-isoxazolepropionic acid (AMPA) from the quisqualatee type receptors.
The displacement activity of the compounds may be shown by determining the IC50 value which represents the concentration (μg/ml) which causes a displacement of 50% of the specific binding of ^3 H-AMPA.
^3 H-AMPA binding (Test 1)
500 μl of thawed rat cerebral cortical membrane homogenate in Tris-HCl (30 mM), CaCl2 (2.5 mM) and KSCN (100 mM) pH 7.1 were incubated at 0° C. for 30 min. with 25μl ^3 H-AMPA (5 nM final concentration) and the test compound and buffer. Nonspecific binding was determined by incubation with L-glutamic acid (600 μM final concentration). The binding reaction was terminated by adding 5 ml of ice-cold buffer followed by filtration through Whatman GF/C glass fibre filters and 2×5 ml wash with ice-cold buffer. Bound radioactivity was measured by scintillation counting. IC50 was determined by Hill analysis of at least four concentrations of test compound.

NMDA receptor = experiment: Inhibition of NMDA stimulated 3H-GABA release from cultured cerebral cortex interneurons (Test 3); format: cell-based; settings: inhibits 50% of NMDA (3 μg/ml) induced 3H-GABA release, mouse cerebral cortex interneurons
Excerpt: The NMDA antagonistic properties of the compounds is illustrated by determining their capability to antagonize NMDA stimulated ^3 H-GABA release from cultured mouse cortex neurons.
The NMDA antagonistic activity of the compounds may be shown by determining the IC50 value, which represents the concentration (μg/ml) which inhibits 50% of NMDA induced ^3 H-GABA release.
Inhibition of NMDA stimulated ^3 H-GABA release from cultured mouse cerebral cortex interneurons (Test 3) Release experiments are performed using the model described by Drejer et al. (Life Sci. 38, 2077 (1986)). To cerebral cortex interneurons cultured in petri dishes (30 mm) are added 100 μg/ml 3-vinyl-GABA one […] before the experiment in order to inhibit degradation of GABA in the neurons. 30 min before the experiment 5 μCi ^3 H-GAGA is added to each culture and after this preloading period the cells are washed twice with a HEPES (N-2 Hydroxyethylpiperazine-N'-2-ethanesulfonic acid) buffered saline (HBS) containing 10 mM HEPES, 135 mM NaCl, 5 mM KCl, 0.6 mM MgSO4, 1.0 mM CaCl2 and 6 mM D-glucose; pH 7 and placed in a superfusion system. This system consists of a peristaltic pump continuously delivering thermostated 37° C. superfusion medium from a reservoir to the top of a slightly-tilted petri dish. The cell monolayer at the bottom of the dish is covered with a piece of nylon mesh to facilitate dispersion of medium over the cell layer. The medium is continuously collected from the lower part of the dish and delivered to a fraction collector. Initially, the cells are superfused with HBS for 15 min (flow rate 2 ml/min). Then cells are stimulated for 30 sec every 4 min by changing the superfusion medium from HBS to a corresponding medium containing NMDA and antagonists according to the following scheme: […]
stimulation no. 1: 3 μg/ml NMDA stimulation no. 2: 3 μg/ml NMDA+0.3 μg/ml antagonist stimulation no. 3: 3 μg/ml NMDA+3 μg/ml antagonist
Test substances are dissolved in water or 48% ethanol. The final ethanol concentration in the assay must not exceed 0.1%.
The release of ^3 H-GABA in the presence of NMDA (stimulated relase in cpm) are corrected for the mean basal release (cpm) before and after the stimulation.
The stimulated release in the presence of antagonists are expressed relative to the stimulated release by NMDA alone and the IC50 value for the antagonist is calculated (the concentration (μg/ml) of the test substance which inhibits 50% of the NMDA induced ^3 H-GABA release) either from a dose response curve or from the formula: [formula] where Co is stimulated release in control assays and Cx is the stimulated release in the test assay (the calculation assumes normal mass-action interaction). 25-75% inhibition of the NMDA stimulation must be obtained, before calculation of IC50.

quisqualate receptor [3] = experiment: Antagonism of quisqualic acid induced 22Na+-release from striatal slices (Test 2); format: cell-based; settings: reduces quisqualic acid (2 μg/ml) stimulated 22Na+ efflux by 50%, rat striatal slices
Experimental: The quisqualate antagonism is measured by determining the EC50 value which represents the concentration which reduces the rate of quisqualic acid stimulated sodium efflux by 50%.
Antagonism of quisqualic acid induced ^22 Na^+ -release (Test 2)
Slices from rat striatum were preincubated with ^22 Na^+ for 30 min. After the ^22 Na^+ loading period, the slices were successively and every minute transferred through a series of tubes, each containing 1.5 ml of a non-radioactive physiological solution saturated with O2, with the help of a basket shaped sieve. Quisqualic acid (2 μg/ml) was present in the last 5 tubes and the compound to be tested was present in the same 5 tubes plus 3 tubes before. The amount of radioactivity in each washout tube as well as that left in the slices at the end of the experiment was measured by scintillation counting. EC50 -values were calculated by Hill analysis from at least three different concentrations of test compound as the concentration of test compound which reduces the efflux rate of ^22 Na^+ -ions to 50% of the efflux rate in the absence of test compound.

kainate receptors = settings: background; cited from earlier work
quisqualate receptors = settings: background; cited from earlier work

## O=C(O)[C@@H]1CCCN[C@H]1C(=O)O (relative stereo) [trans-2,3-PDA, trans-2,3-piperidine dicarboxylic acid]
[1]
  agonist activity on NMDA receptors: strong to moderate agonist activity

## O=[N+]([O-])c1cccc2c1c([N+](=O)[O-])cc1nc(O)c(O)nc12 [2,3-Dihydroxy-6,7-dinitrobenzo(f)quinoxaline]
Quisqualate receptor [2]
  Test 1 IC50: 0.06 µg/mL
NMDA receptor
  Test 3 IC50: 0.3 µg/mL
Quisqualate receptor [3]
  Test 2 EC50: 2.8 µg/mL

## O=[N+]([O-])c1cc2nc(O)c(O)nc2c2c([N+](=O)[O-])cccc12 [2,3-Dihydroxy-6,10-dinitrobenzo(f)quinoxaline]
Quisqualate receptor [2]
  Test 1 IC50: 0.85 µg/mL
NMDA receptor
  Test 3 IC50: 0.97 µg/mL

## O=[N+]([O-])c1cc2nc(O)c(O)nc2c2ccccc12 [2,3-Dihydroxy-6-nitrobenzo(f)quinoxaline]
Quisqualate receptor [2]
  Test 1 IC50: 0.69 µg/mL
NMDA receptor
  Test 3 IC50: 0.39 µg/mL
Quisqualate receptor [3]
  Test 2 EC50: 14 µg/mL

## O=[N+]([O-])c1cc2nc(O)c(O)nc2c2cccnc12 [2,3-Dihydroxy-6-nitropyrido(2,3-f)quinoxaline]
Quisqualate receptor [2]
  Test 1 IC50: 0.61 µg/mL
NMDA receptor
  Test 3 IC50: 1.5 µg/mL

## N[C@@H](CCC(=O)NCC(=O)O)C(=O)O [3-glutamyl-glycine]
Kainate receptors
  antagonism / selectivity at kainate receptors: some selectivity for kainate receptors

## Nc1cc2nc(O)c(O)nc2c2ccccc12 [6-Amino-2,3-dihydroxybenzo(f)quinoxaline]
Quisqualate receptor [2]
  Test 1 IC50: 1.1 µg/mL
Quisqualate receptor [3]
  Test 2 EC50: 23 µg/mL

## O=[N+]([O-])c1cccc2c(Br)cc3nc(O)c(O)nc3c12 [6-bromo-2,3-dihydroxy-10-nitrobenzo(f)quinoxaline]
Quisqualate receptor [2]
  Test 1 IC50: 9.2 µg/mL
NMDA receptor
  Test 3 IC50: 0.25 µg/mL

## O=[N+]([O-])c1cc2nc(O)c(O)nc2c2c1CCCC2 [7,8,9,10-Tetrahydro-2,3-dihydroxy-6-nitrobenzo(f)quinoxaline]
Quisqualate receptor [2]
  Test 1 IC50: 0.17 µg/mL
NMDA receptor
  Test 3 IC50: 0.092 µg/mL

## Cc1onc(O)c1CC(N)C(=O)O (stereo not drawn) [AMPA, 2-amino-3-hydroxy-5-methyl-4-isoxazolepropionic acid]
Quisqualate receptors
  agonist activity on quisqualate receptors: potent agonists

## N[C@H](CCCC(=O)O)C(=O)O [D-2-amino-adipic acid]
[1]
  antagonist activity on NMDA receptors: moderate antagonist activity

## N[C@H](CCCCCP(=O)(O)O)C(=O)O [D-APH, 2-amino-7-phosphonoheptanoic acid]
[1]
  antagonist activity on NMDA receptors: most potent and selective antagonists

## N[C@H](CCCP(=O)(O)O)C(=O)O [D-APV, 2-amino-5-phosphono-valeric acid]
[1]
  antagonist activity on NMDA receptors: most potent and selective antagonists

## N[C@H](CCC(=O)O)C(=O)O [D-glutamic acid]
[1]
  agonist activity on NMDA receptors: strong to moderate agonist activity

## CCOC(=O)CCC(N)C(=O)OCC (stereo not drawn) [GDEE, Glutamic acid diethyl esteer]
Kainate receptors
  antagonism / selectivity at kainate receptors: relatively insensitive to antagonism
Quisqualate receptors
  antagonist activity at quisqualate receptors: selective but very weak antagonist

## N[C@H](C(=O)O)c1cc(=O)[nH]o1 [Ibotenic acid]
[1]
  agonist activity on NMDA receptors: strong to moderate agonist activity

## N[C@@H](CCC(=O)O)C(=O)O [L-glutamic acid]
Quisqualate receptors
  agonist activity on quisqualate receptors: potent agonists

## N[C@@H](CCS(=O)(=O)O)C(=O)O [L-homocysteic acid]
[1]
  agonist activity on NMDA receptors: strong to moderate agonist activity

## N[C@H](CCC[C@H](N)C(=O)O)C(=O)O [diaminopimelic acid]
[1]
  antagonist activity on NMDA receptors: moderate antagonist activity

## N[C@@H](Cn1oc(=O)[nH]c1=O)C(=O)O [quisqualic acid]
Quisqualate receptors
  agonist activity on quisqualate receptors: activated selectively
